In PubChem BioAssay (NCI):
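Each compound was tested at five concentrations against cells in 96-well plates for 48 hours. TGI is the concentration that stops growth completely.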

Tests used:
Experiment in all cases: NCI-60 cell line screen, 48 h
786-0 renal = test system: 786-0 renal
ACHN renal = test system: ACHN renal
BT-549 breast = test system: BT-549 breast
CAKI-1 renal = test system: CAKI-1 renal
COLO 205 colon = test system: COLO 205 colon
DU-145 prostate = test system: DU-145 prostate
EKVX NSCLC = test system: EKVX NSCLC
HCC-2998 colon = test system: HCC-2998 colon
HCT-116 colon = test system: HCT-116 colon
HCT-15 colon = test system: HCT-15 colon
M14 melanoma = test system: M14 melanoma
MALME-3M melanoma = test system: MALME-3M melanoma
MCF7 breast = test system: MCF7 breast
MDA-N = test system: MDA-N
NCI-H226 lung = test system: NCI-H226 lung
NCI-H23 lung = test system: NCI-H23 lung
NCI-H460 lung = test system: NCI-H460 lung
NCI/ADR-RES ovarian = test system: NCI/ADR-RES ovarian
OVCAR-4 ovarian = test system: OVCAR-4 ovarian
OVCAR-5 ovarian = test system: OVCAR-5 ovarian
PC-3 prostate = test system: PC-3 prostate
RXF 393 renal = test system: RXF 393 renal
SF-268 CNS = test system: SF-268 CNS
SF-539 CNS = test system: SF-539 CNS
SK-MEL-2 melanoma = test system: SK-MEL-2 melanoma
SK-MEL-5 melanoma = test system: SK-MEL-5 melanoma
SK-OV-3 ovarian = test system: SK-OV-3 ovarian
SN12C renal = test system: SN12C renal
SNB-75 CNS = test system: SNB-75 CNS
T-47D breast = test system: T-47D breast
TK-10 renal = test system: TK-10 renal
UACC-257 melanoma = test system: UACC-257 melanoma
UACC-62 melanoma = test system: UACC-62 melanoma
UO-31 renal = test system: UO-31 renal
A498 renal = test system: A498 renal
A549 NSCLC = test system: A549 NSCLC
CCRF-CEM leukemia = test system: CCRF-CEM leukemia
HL-60(TB) leukemia = test system: HL-60(TB) leukemia
HOP-62 NSCLC = test system: HOP-62 NSCLC
HOP-92 NSCLC = test system: HOP-92 NSCLC
IGROV1 ovarian = test system: IGROV1 ovarian
K-562 leukemia = test system: K-562 leukemia
KM12 colon = test system: KM12 colon
LOX IMVI melanoma = test system: LOX IMVI melanoma
MDA-MB-231 breast = test system: MDA-MB-231 breast
MDA-MB-435 = test system: MDA-MB-435
MOLT-4 leukemia = test system: MOLT-4 leukemia
NCI-H522 lung = test system: NCI-H522 lung
OVCAR-3 ovarian = test system: OVCAR-3 ovarian
OVCAR-8 ovarian = test system: OVCAR-8 ovarian
RPMI-8226 leukemia = test system: RPMI-8226 leukemia
SF-295 CNS = test system: SF-295 CNS
SK-MEL-28 melanoma = test system: SK-MEL-28 melanoma
SNB-19 CNS = test system: SNB-19 CNS
SW-620 colon = test system: SW-620 colon
U251 CNS = test system: U251 CNS
HS 578T breast = test system: HS 578T breast
HT29 colon = test system: HT29 colon
SR leukemia = test system: SR leukemia

Measured: TGI

NCC(=O)N1CCN(c2nc(N3CCCC3)c3nc(Cl)c(NCc4ccccc4)nc3n2)CC1
4.79 µM: OVCAR-4 ovarian
3.38 µM: MCF7 breast
2.89 µM: RXF 393 renal
3.59 µM: NCI-H460 lung
3.54 µM: SK-OV-3 ovarian
4.34 µM: ACHN renal
3.42 µM: SK-MEL-2 melanoma
3.24 µM: UACC-257 melanoma | UACC-62 melanoma
3.74 µM: BT-549 breast
3.16 µM: SNB-75 CNS
3.17 µM: SK-MEL-5 melanoma
3.11 µM: 786-0 renal
6.4 µM: CAKI-1 renal
36.8 µM: NCI/ADR-RES ovarian
4.41 µM: SF-268 CNS
3.73 µM: MALME-3M melanoma | TK-10 renal
3.81 µM: EKVX NSCLC
6.82 µM: DU-145 prostate
3.67 µM: HCT-15 colon
3.63 µM: NCI-H23 lung
3.15 µM: M14 melanoma
3.19 µM: COLO 205 colon
9.87 µM: OVCAR-5 ovarian
19 µM: NCI-H226 lung
3.23 µM: HCT-116 colon
3.58 µM: SF-539 CNS
3.06 µM: UO-31 renal
3.34 µM: MDA-N | SN12C renal
7.33 µM: PC-3 prostate
3.03 µM: HCC-2998 colon | T-47D breast

CC(C)(C)OC(=O)Nc1cc(-c2ccccc2)co1
86.8 µM: HOP-92 NSCLC
94.4 µM: SF-268 CNS
69.1 µM: NCI-H522 lung
not listed: MALME-3M melanoma | NCI-H460 lung | RXF 393 renal | SNB-75 CNS | HS 578T breast | HT29 colon | SR leukemia
> 100 µM: all other assays above

O=CC1OC(=O)c2cc(O)c(O)c(O)c2-c2c(cc(O)c(O)c2O)C(=O)OC1C(O)C(O)CO (stereo not drawn)
32.9 µM: MDA-MB-435 | SW-620 colon
51.3 µM: SR leukemia
37.8 µM: OVCAR-4 ovarian
72.4 µM: RPMI-8226 leukemia
35.9 µM: CAKI-1 renal
39.4 µM: MCF7 breast
85.5 µM: CCRF-CEM leukemia
31.4 µM: LOX IMVI melanoma
31.9 µM: PC-3 prostate
36.2 µM: MDA-N
44.2 µM: K-562 leukemia
46.8 µM: HT29 colon
81.1 µM: HCT-116 colon
45.8 µM: OVCAR-8 ovarian
56.8 µM: MOLT-4 leukemia
32.3 µM: U251 CNS
67.9 µM: SF-295 CNS
35.8 µM: MDA-MB-231 breast
not listed: SK-OV-3 ovarian | T-47D breast | UACC-62 melanoma
> 100 µM: all other assays above

Cc1ccc(Nc2sc(C)cc2C#N)c([N+](=O)[O-])c1
not listed: SK-MEL-2 melanoma | SK-MEL-5 melanoma | TK-10 renal | HL-60(TB) leukemia | IGROV1 ovarian | LOX IMVI melanoma | HS 578T breast | HT29 colon
> 100 µM: all other assays above
